In article PMC5374215, “Fludarabine Inhibits KV1.3 Currents in Human B Lymphocytes” (Frontiers in Pharmacology, 2017) one finds inhibition data, which are given here for 1 compound.

For this assay, the target named is T1, KV1.3 (Homo sapiens, UniProt P22001).
T1 construct: gene KCNA3; human KV1.3 channel (KV1.3-pEYFP) transiently transfected in HEK-293 cells
The experiment in a line: whole-cell patch clamp of KV1.3-transfected HEK-293 cells. In kind it is cell-based. The settings on record: HEK293.

Molecules are shown by their SMILES.

T1 sequence (P22001 whole entry): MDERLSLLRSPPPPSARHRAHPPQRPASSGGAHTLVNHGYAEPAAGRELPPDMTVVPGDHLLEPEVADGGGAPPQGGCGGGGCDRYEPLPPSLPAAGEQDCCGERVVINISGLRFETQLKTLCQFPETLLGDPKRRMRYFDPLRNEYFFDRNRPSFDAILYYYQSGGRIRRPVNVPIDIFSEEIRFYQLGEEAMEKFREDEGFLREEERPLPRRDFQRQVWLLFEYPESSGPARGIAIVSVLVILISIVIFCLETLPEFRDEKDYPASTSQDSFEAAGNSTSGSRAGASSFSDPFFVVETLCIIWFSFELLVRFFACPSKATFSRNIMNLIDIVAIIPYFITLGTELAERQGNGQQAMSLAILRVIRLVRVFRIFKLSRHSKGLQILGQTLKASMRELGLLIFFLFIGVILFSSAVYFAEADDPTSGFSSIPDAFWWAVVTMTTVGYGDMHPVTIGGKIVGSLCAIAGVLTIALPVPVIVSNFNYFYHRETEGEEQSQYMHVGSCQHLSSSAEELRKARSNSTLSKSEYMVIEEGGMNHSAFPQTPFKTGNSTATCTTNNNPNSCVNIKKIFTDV

Turning to `O=c1ccc2c(OCCCCOc3ccccc3)c3ccoc3cc2o1` [PAP-1, 5-(4-phenoxybutoxy)psoralen], 0.2 µM produced 89.5 ± 2.8% inhibition.

By inhibition is commonly meant the relative decrease from the control value, in per cent. A higher inhibition goes with a strong effect.
